Measurements taken from PubChem BioAssay AID2060500 (Molecular Pharmacology Branch, DTP, NCI, 2025).
Several values for one entry are separate records, joined by “and”; a condition that tells them apart may be missing. Identical values can stand only once.

System: 596521-263-R-J1-PDC complex spheroids, viability % of control
Assay: Anticancer human tumor 596521-263-R-J1-PDC patient-derived soft tissue sarcoma cell line growth inhibition [GQUAD]
Conditions: for viability, T/C: stronger effect = lower value
Source text: DNA G-quadruplex Stabilizer Agents in Combinations in Complex Spheroids
A high-throughput screen of multi-cell type tumor spheroids was designed to identify active combinations of DNA G-quadruplex stabilizer agents and targeted small molecules. Complex spheroids include a stromal component modeled by human endothelial cells (HUVEC) and fibroblasts modeled by human mesenchymal stem cells (MSCs). The concentration ranges selected for each drug and investigational agent were based upon clinically achievable concentrations if the clinical Cmax of the agent was known.
Compounds. The drugs and investigational agents: pidnarulex (CX-5461; NSC782164), APTO-253 (NSC789042), BRACO-19 (NSC847499), peposertib (NSC802822), ceralasertib (NSC780249), elimusertib (NSC800525), camonsertib (NSC841442), AZD-1390 (NSC803789), olaparib (NSC753686), talazoparib (NSC767125), ART-558 (NSC835418), sotorasib (NSC818433), MRTX-1133 (NSC836407), SN-38 (NSC673596), topotecan (NSC609699), etoposide (NSC141540), doxorubicin (NSC123127), gemcitabine (NSC613327), 5-fluorouracil (NSC19893), paclitaxel (NSC125973), vemurafenib (NSC761431), panobinostat (NSC761190), R-306465 (JNJ-16241199; NSC773264), adavosertib (NSC754352), TP-3654 (NSC805149), carboplatin (NSC241240), KSQ-4279 (NSC840948), and staurosporine (NSC755774) were obtained from the National Cancer Institute (NCI) Developmental Therapeutics Program Chemical Repository (34). The FDA-approved anticancer drug set is available from the NCI Developmental Therapeutics Program. […] The stock solutions were prepared in dimethyl sulfoxide (DMSO, Sigma-Aldrich, St. Louis, MO, cat. D2650) at 800-fold the tested concentration and stored at -70 degrees C prior to their use. All drugs and investigational agents were tested over a range starting from a high concentration at or near the clinical Cmax and decreasing in half-log increments. If the clinical Cmax for an agent had not been determined, the highest concentration tested was 10 microM.
2.3 Cell Culture. All cells were maintained in an incubator at 37 degrees C and 5% CO2 with 95% humidity. The PDC lines were cultured according to standard operating procedures established by the NCI PDMR. All PDCs were thawed and cultured in Matrigel-coated flasks prepared with a working solution of 1X Ham's F-12 nutrient mix, without supplementation (Invitrogen, cat. 11765054), 100 U/mL penicillin-streptomycin (Invitrogen, cat. 15140122), and 2.5% Matrigel (Corning Inc., cat. 354248) for the first three passages. The 857933-349-R-J2-PDC line was cultured in 6C/Colon 1B media, which includes advanced DMEM/F-12 (Thermo Fisher Scientific, cat. 12634028), 10 mM HEPES (Thermo Fisher Scientific, cat. 15630080), 1X GlutaMAX supplement (Thermo Fisher Scientific, cat. 35050061), 0.1 mg/mL primocin (InvivoGen, cat. ant-pm-2), 10% defined fetal bovine serum, heat inactivated (HyClone Laboratories Inc., cat. SH30070.03HI), 50% L-WRN conditioned media (ATCC, cat. CRL-3276), 1.25 mM N-Acetyl-L-cysteine (Sigma-Aldrich, cat. A9165), 10 mM nicotinamide (Sigma-Aldrich, cat. N0636), 1X B-27 supplement (Thermo Fisher Scientific, cat. 17504044), 1X N-2 supplement (Thermo Fisher Scientific, cat. 17502048), 10 microM Y-27632 dihydrochloride (Tocris Bioscience, cat. 1254), and 50 ng/mL human EGF recombinant protein (Thermo Fisher Scientific, cat. PHG0311). The 485176-168-R4-J1-PDC line was cultured in Panc media, which includes all 6C/Colon 1B media components plus 100 ng/mL human FGF-10 (Thermo Fisher Scientific, cat. 100-26), 500 nM SB-431542 (Selleckchem, cat. S1067), and gastrin (Tocris, cat. 3006).
[…]
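Further: spheroids exposed to drugs for 7 days before viability reading.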

Structure (SMILES): Cc1cnc(CNC(=O)c2c(=O)c3ccc(N4CCCN(C)CC4)nc3n3c2sc2ccccc23)cn1
- viability, T/C (compound 0.0316 µM): 99% [middle of 12 runs]
- viability, T/C (compound 0.1 µM): 93.1% [middle of 12 runs]
- viability, T/C (compound 0.316 µM): 80.5% [middle of 12 runs]
- viability, T/C (compound 1 µM): 68% [middle of 12 runs]
- viability, T/C (compound 3.16 µM): 56.4% [middle of 12 runs]
- viability, T/C (compound 10 µM): 47.9% [middle of 12 runs]

Structure (SMILES): O=C(c1cc(Cc2n[nH]c(=O)c3ccccc23)ccc1F)N1CCN(C(=O)C2CC2)CC1 + CN(C)c1ccc(Nc2c3ccc(NC(=O)CCN4CCCC4)cc3nc3cc(NC(=O)CCN4CCCC4)ccc23)cc1
- IC50 (curve of first compound, second compound 0.0316 µM): > 10 µM
- IC50 (curve of first compound, second compound 0.1 µM): > 10 µM
- IC50 (curve of first compound, second compound 0.316 µM): > 10 µM
- IC50 (curve of first compound, second compound 1 µM): > 10 µM
- IC50 (curve of first compound, second compound 3.16 µM): > 10 µM
- IC50 (curve of first compound, second compound 10 µM): > 10 µM
- viability, T/C (second compound 0.0316 µM, first compound 0.0316 µM): 112%
- viability, T/C (second compound 0.0316 µM, first compound 0.1 µM): 106%
- viability, T/C (second compound 0.0316 µM, first compound 0.316 µM): 101%
- viability, T/C (second compound 0.0316 µM, first compound 1 µM): 104%
- viability, T/C (second compound 0.0316 µM, first compound 3.16 µM): 86.2%
- viability, T/C (second compound 0.0316 µM, first compound 10 µM): 68%
- viability, T/C (second compound 0.1 µM, first compound 0.0316 µM): 108%
- viability, T/C (second compound 0.1 µM, first compound 0.1 µM): 89.3%
- viability, T/C (second compound 0.1 µM, first compound 0.316 µM): 97.4%
- viability, T/C (second compound 0.1 µM, first compound 1 µM): 99%
- viability, T/C (second compound 0.1 µM, first compound 3.16 µM): 88.3%
- viability, T/C (second compound 0.1 µM, first compound 10 µM): 67.9%
- viability, T/C (second compound 0.316 µM, first compound 0.0316 µM): 114%
- viability, T/C (second compound 0.316 µM, first compound 0.1 µM): 103%
- viability, T/C (second compound 0.316 µM, first compound 0.316 µM): 101%
- viability, T/C (second compound 0.316 µM, first compound 1 µM): 103%
- viability, T/C (second compound 0.316 µM, first compound 3.16 µM): 88.5%
- viability, T/C (second compound 0.316 µM, first compound 10 µM): 74.3%
- viability, T/C (second compound 1 µM, first compound 0.0316 µM): 108%
- viability, T/C (second compound 1 µM, first compound 0.1 µM): 98.2%
- viability, T/C (second compound 1 µM, first compound 0.316 µM): 109%
- viability, T/C (second compound 1 µM, first compound 1 µM): 99.2%
- viability, T/C (second compound 1 µM, first compound 3.16 µM): 94.6%
- viability, T/C (second compound 1 µM, first compound 10 µM): 69.2%
- viability, T/C (second compound 3.16 µM, first compound 0.0316 µM): 110%
- viability, T/C (second compound 3.16 µM, first compound 0.1 µM): 89.6%
- viability, T/C (second compound 3.16 µM, first compound 0.316 µM): 90.8%
- viability, T/C (second compound 3.16 µM, first compound 1 µM): 89.9%
- viability, T/C (second compound 3.16 µM, first compound 3.16 µM): 91%
- viability, T/C (second compound 3.16 µM, first compound 10 µM): 70.8%
- viability, T/C (second compound 10 µM, first compound 0.0316 µM): 70.4%
- viability, T/C (second compound 10 µM, first compound 0.1 µM): 62.2%
- viability, T/C (second compound 10 µM, first compound 0.316 µM): 76.7%
- viability, T/C (second compound 10 µM, first compound 1 µM): 72.4%
- viability, T/C (second compound 10 µM, first compound 3.16 µM): 66.5%
- viability, T/C (second compound 10 µM, first compound 10 µM): 59.9%

Structure (SMILES): O=c1[nH]cc(F)c(=O)[nH]1
- viability, T/C (compound 0.0316 µM): 95.6% and 102% and 106%
- viability, T/C (compound 0.1 µM): 105% and 100% and 94.9%
- viability, T/C (compound 0.316 µM): 105% (2×) and 107%
- viability, T/C (compound 1 µM): 98.4% and 114% and 99.3%
- viability, T/C (compound 3.16 µM): 94.5% and 97.5% and 97.7%
- viability, T/C (compound 10 µM): 97.2% and 97.8% and 93.8%
- IC50 (curve of compound): > 10 µM

Structure (SMILES): C=CC(=O)N1CCN(c2nc(=O)n(-c3c(C)ccnc3C(C)C)c3nc(-c4c(O)cccc4F)c(F)cc23)C(C)C1 (centres undefined)
- viability, T/C (compound 0.0316 µM): 107% and 105% and 114%
- viability, T/C (compound 0.1 µM): 92.7% and 91.9% and 95.5%
- viability, T/C (compound 0.316 µM): 96.9% and 101% and 108%
- viability, T/C (compound 1 µM): 114% and 120% and 118%
- viability, T/C (compound 3.16 µM): 96.2% and 97% and 113%
- viability, T/C (compound 10 µM): 73.2% and 66.5% and 84.6%
- IC50 (curve of compound): > 10 µM

Structure (SMILES): CCCS(=O)(=O)Nc1ccc(F)c(C(=O)c2c[nH]c3ncc(-c4ccc(Cl)cc4)cc23)c1F
- viability, T/C (compound 0.0316 µM): 105% and 100% and 95.2%
- viability, T/C (compound 0.1 µM): 81.5% and 87% and 92.4%
- viability, T/C (compound 0.316 µM): 51.8% and 93% and 109%
- viability, T/C (compound 1 µM): 43% and 88.8% and 110%
- viability, T/C (compound 3.16 µM): 40% and 64.2% and 82.7%
- viability, T/C (compound 10 µM): 34.2% and 30.7% and 36.3%

Structure (SMILES): COc1ccc([C@@H](O)c2cc(-c3ncnc4cc(N5CCOCC5)ccc34)c(F)cc2Cl)nn1
- viability, T/C (compound 0.0316 µM): 102% and 104% and 98.4%
- viability, T/C (compound 0.1 µM): 96.8% and 88% and 99.3%
- viability, T/C (compound 0.316 µM): 89.7% and 79.9% and 93.3%
- viability, T/C (compound 1 µM): 77.9% and 79.6% and 88.5%
- viability, T/C (compound 3.16 µM): 66.9% and 63.6% and 80%
- viability, T/C (compound 10 µM): 51% and 47.4% and 51.9%
- IC50 (curve of compound): > 10 µM and 9.83 µM

Structure (SMILES): O=C(c1cc(Cc2n[nH]c(=O)c3ccccc23)ccc1F)N1CCN(C(=O)C2CC2)CC1
- viability, T/C (compound 0.0316 µM): 102% and 96.8% and 103%
- viability, T/C (compound 0.1 µM): 95.1% and 97.1% and 87.4%
- viability, T/C (compound 0.316 µM): 87.9% and 88.9% and 100%
- viability, T/C (compound 1 µM): 89.7% and 89.3% and 95.3%
- viability, T/C (compound 3.16 µM): 92.5% and 79.6% and 86.6%
- viability, T/C (compound 10 µM): 68.4% and 67.2% and 66.9%
- IC50 (curve of compound): > 10 µM

Structure (SMILES): CC(=O)O[C@H]1C(=O)[C@@]2(C)[C@H]([C@H](OC(=O)c3ccccc3)[C@]3(O)C[C@H](OC(=O)[C@H](O)[C@@H](NC(=O)c4ccccc4)c4ccccc4)C(C)=C1C3(C)C)[C@]1(OC(C)=O)CO[C@@H]1C[C@@H]2O
- viability, T/C (compound 0.0316 µM): 76.3% and 38.3% and 43.2%
- viability, T/C (compound 0.1 µM): 42.8% and 28.9% and 29%
- viability, T/C (compound 0.316 µM): 10.7% and 26.6% and 31.2%
- IC50 (curve of compound): 0.0783 µM and < 0.0316 µM

Structure (SMILES): C=CCn1c(=O)c2cnc(Nc3ccc(N4CCN(C)CC4)cc3)nc2n1-c1cccc(C(C)(C)O)n1
- viability, T/C (compound 0.0316 µM): 99.8% and 97.8% and 103%
- viability, T/C (compound 0.1 µM): 92% and 80.4% and 93.1%
- viability, T/C (compound 0.316 µM): 96.9% and 51.6% and 61.3%
- viability, T/C (compound 1 µM): 92.4% and 41% and 41.4%
- viability, T/C (compound 3.16 µM): 67.7% and 34.9% and 37%
- viability, T/C (compound 10 µM): 33.8% and 38.8% and 32.9%

Structure (SMILES): CC(C)(O)C1CCC(Nc2ccc3ncc(-c4cccc(C(F)(F)F)c4)n3n2)CC1 (centres undefined)
- viability, T/C (compound 0.0316 µM): 106% and 99.4% and 95.7%
- viability, T/C (compound 0.1 µM): 98.4% and 97.7% and 91.8%
- viability, T/C (compound 0.316 µM): 103% and 93.5% and 85.9%
- viability, T/C (compound 1 µM): 97.1% and 55.2% and 69.5%
- viability, T/C (compound 3.16 µM): 108% and 10.6% and 16.7%
- viability, T/C (compound 10 µM): 84% and 18.1% and 15.5%
- IC50 (curve of compound): > 10 µM and 1.16 µM and 1.54 µM
